# Test results: publication PMC6407204, “Oral administration of the cannabigerol derivative VCE-003.2 promotes subventricular zone neurogenesis and protects against mutant huntingtin-induced neurodegeneration” (Translational Neurodegeneration, 2019)
# Assays:
# in vitro = conditions: human, microsomes, pH 7.4
# Description: The final incubation volume was 25 μL. […] The reactions were stopped by the addition of 50 μL methanol containing internal standard at the appropriate time points. The incubation plates were centrifuged at 2500 rpm for 20 min at 4 °C to precipitate the protein. Following protein precipitation, the sample supernatants were analyzed using LC-MS/MS. From a plot of ln peak area ratio (compound peak area/internal standard peak area) against time, the gradient of the line was determined. Subsequently, half-life and intrinsic clearance was calculated using the equations below: Elimination rate constant (k) = (− gradient).
# murine models of HD = tested on: murine models of HD; set-up: method as in PMID 25252936; conditions: 3-nitropropionic acid injection model and R6/2 model, via PPARγ; cited from earlier work
# S. typhimurium TA98 = experiment: AMES reverse mutation assay, TA98; type: cell-based; conditions: TA98, S9 yes
# Description: (§1) Supplementary file 40035_2019_148_MOESM4_ESM.pdf: Additional file 4: AMES Data Summary. AMES Experimental Procedure. Approximately ten million bacteria are exposed in triplicate to VCE-003-.2 (7.8, 15.6, 31.3, 62.5, 125 and 250 μg/ml), a negative control (vehicle) and a positive control for 90 min in medium containing a low concentration of histidine (sufficient for about 2 doublings). The cultures were then diluted into indicator medium lacking histidine and dispensed into 48 wells of a 384 well plate (micro-plate format, MPF). The plate was incubated for 48 h at 37 °C, and the number of wells showing growth were counted and compared to the vehicle control. An increase in the number of colonies of at least two-fold over baseline (mean + SD of the vehicle control) and a dose response indicates a positive response. […] Where indicated, S9 fraction from the livers of Aroclor 1254-treated rats was included in the incubation at a final concentration of 4.5%. An NADPH-regenerating system is also included to ensure a steady supply of reducing equivalents. The strains used in this study were S. typhimurium TA98 (hisD3052, rfa, uvrB/pKM10 for detection of frame-shift mutations) and S. typhimurium TA100 ([…], rfa, uvrB/pKM101 for detection of base-pair substitutions). VCE-003.2 was assessed for its mutagenic potential in the AMES reverse mutation assay. This test was performed in the absence and presence of S9 metabolic activation. […] The positive controls all behaved as expected. (PDF 568 kb)
# S. typhimurium TA100 = experiment: AMES reverse mutation assay, TA100; type: cell-based; conditions: TA100, S9 yes
# Description: as §1
SMILES,half-life (in vitro),microsomal CLint (in vitro),"motor symptoms, neuroinflammation and neurodegeneration in HD models (murine models of HD)",AMES Result (S. typhimurium TA98),AMES Result (S. typhimurium TA100)
"CCCCCc1cc(O)c(C/C=C(\C)CCC=C(C)C)c(O)c1 [CBG, Cannabigerol]",13.4 min,103 µL/min/mg,"alleviates motor symptoms, neuroinflammation and neurodegeneration",,
"COc1ccc2c(c1)[C@]13CCCC[C@@H]1[C@H](C2)N(C)CC3 [Dextrom Etorphan, dextromethorphan]",58.1 min,23.9 µL/min/mg,,,
"Nc1cccc2cc3ccccc3cc12 [aminoanthracene, reference compound]",,,,Positive,Positive
